Assay results from patent US20230381343A1, “Treatment for Intraocular Pressure Related Disorders” (Mayo Foundation for Medical Education and Research, priority 2021, published 2023).

How the values were obtained:
[1] = one eye, IOP 33 mmHg at 12 months after plaque
Excerpt: Records were reviewed for patient demographics, clinical tumor features, treatment parameters, and outcomes, with attention to IOP and optic disc features.

C57BL/6J mice = experiment: Aqueous outflow parameters by constant flow infusion; assay type: in vivo, mouse; details: 6 weeks post intracameral injection, treatment day 5 for topical
Excerpt: To determine the effects of ssAAV2-smCBA-STC-1-FLAG on parameters of aqueous outflow, 3-month old C57BL/6J mice were separately treated with the following: 1) intracameral ssAAV2-smCB A-STC-1-FLAG (n=5), 2) intracameral ssAAV2-smCBA-GFP (n=5), 3) topical recombinant human STC-1 (n=4; Biovender Research and Diagnostic Products, Czech Republic) (Roddy et al., Invest Ophthalmol Vis Sci. 58:2715-24(2017); Roddy et al., PLoS ONE. 15(2020)), 4) topical latanoprost free acid (LFA; n=5; Cayman Chemical, Ann Arbor, MI), or 5) untreated mice (n=4). Mice that received topical treatments were treated with once daily topical doses of STC-1 (5 μl of 0.5 μg/μl) or LFA (10^-4 M) for 5 days prior to aqueous outflow experiments. Mice that received intracameral injections were treated 6 weeks prior to aqueous outflow measurements. Aqueous outflow was assessed using the protocols previously established (Millar et al., Invest Ophthalmol Vis Sci. 52:685-94(2011); Roy Chowdhury et al., Invest Ophthalmol Vis Sci. 58:5731-42(2017)). Briefly, a 33-g needle was used to cannulate the anterior chamber of anesthetized mice. The needle was connected to a flow-through pressure transducer (World Precision Instruments, Sarasota, FL) that was also connected to an SP101i microdialysis infusion pump (World Precision Instruments) and an open-ended, variable-height, raised reservoir manometer. Episcleral venous pressure was obtained by visualizing the reflux of blood into Schlemm's canal by direct ophthalmoscopy as the reservoir was lowered. Outflow facility was determined by slowly increasing the flow rate with the infusion pump and recording the pressure. Uveoscleral outflow was calculated when the inflow is presumed to be zero immediately after animal sacrifice. Aqueous humor formation was then estimated by using the modified Goldmann equation, i.e. aqueous formation rate=[outflow facility X (IOP−episcleral venous pressure)]+uveoscleral outflow as previously described (Millar et al., Invest Ophthalmol Vis Sci. 52:685-94(2011)). To validate the calculated IOP values based on the Goldman equation, IOP was also assessed with a handheld rebound tonometer. All data were recorded and analyzed using LabScribe software (World Precision Instruments).

[2] = system: mouse model of experimental autoimmune uveitis; experiment: Experimental autoimmune uveitis (EAU), topical treatment; assay type: in vivo; details: daily topical
Procedure: Following induction of experimental autoimmune uveitis (EAU), mice were treated daily with topical latanoprost free acid (LFA; 100 μM) or STC-1 (0.5 μg/mL) in one eye and vehicle in the other eye. At day 18, OCT was performed and retinal thickness was measured in a masked manner. At day 21, eyes were enucleated and processed for hematoxylin and eosin (H&E) staining.
Experimental autoimmune uveitis (EAU) was induced in the C57B/6 mouse with a protocol described elsewhere (see, e.g., Avichezer et al., Invest. Ophthalmol. Vis. Sci., 41(1):127-31 (2004)). Briefly, human interphotoreceptor retinoid binding protein (IRBP) in complete Freund's adjuvant was injected subcutaneously and pertussis toxin was injected intraperitoneally as an additional immune stimulus.

wild-type C57BL/6J mice = experiment: Steroid-induced (dexamethasone) ocular hypertension model, topical treatment; assay type: in vivo, mouse
Excerpt: All studies were approved by the Mayo Clinic (Rochester, MN) IACUC and adhered to ARVO guidelines. […] In the final phase of the experiment (experimental weeks 7-9, treatment weeks 4-6), dexamethasone-injected animals in Group 2 continued to receive topical STC-1 while treatment was halted in the vehicle-injected fellow eye for a medication wash-out period (FIG. 22). For statistical purposes, the final week of each condition was selected (i.e. weeks 3, 6, and 9) for analysis. To determine if a difference in IOP was present among groups at week 6 and 9, a Kruskal-Wallis test was performed. An unpaired t-test was used to directly compare the two groups. Values for all statistical tests were considered significant at P<0.05.
For both models histologic analysis was performed.

dorzolamide hydrochloride-timolol maleate
Response of IOP spike to topical therapy [1]: responded

O=C(O)CCC/C=C\C[C@@H]1[C@@H](CC[C@@H](O)CCc2ccccc2)[C@H](O)C[C@@H]1O [LFA, latanoprost free acid]
Episcleral venous pressure (C57BL/6J mice): 10.0 ± 2.4 mmHg | Outflow facility (C57BL/6J mice): 0.046 ± 0.02 μL/min/mmHg | Uveoscleral outflow (C57BL/6J mice): 0.046 ± 0.02 µL/min | Calculated IOP (C57BL/6J mice; Goldmann equation): 14.0 ± 1.9 mmHg | Measured IOP (C57BL/6J mice; rebound tonometer): 13.2 ± 0.9 mmHg | Retinal thickness by OCT vs vehicle control eye ([2]; day 18): no significant difference in retinal thickness | Vitreous inflammatory cells (H&E) ([2]; day 21): trend toward greater vitreous cell

CC(=O)OCC(=O)[C@@]1(O)[C@H](C)C[C@H]2[C@@H]3CCC4=CC(=O)C=C[C@]4(C)[C@@]3(F)[C@@H](O)C[C@@]21C [dexamethasone, dexamethasone acetate]
IOP (wild-type C57BL/6J mice; PBS-treated dexamethasone-injected eyes, week 6, n=8): 19.5±1.7 mmHg | IOP (wild-type C57BL/6J mice; PBS-treated dexamethasone-injected eyes, week 9, n=8): 19.7±1.3 mmHg | Increase in IOP vs vehicle-injected eyes (wild-type C57BL/6J mice; after 3 weekly conjunctival fornix injections, n=18): 18% | IOP (wild-type C57BL/6J mice; dexamethasone-injected eyes, week 3, n=18): 19.7±1.8 mmHg | IOP change vs PBS-treated vehicle-injected eyes (wild-type C57BL/6J mice; week 6, n=8): 25%
